Test results: article PMC7994357, “Gene Expression, Biochemical Characterization of a sn-1, 3 Extracellular Lipase From Aspergillus niger GZUF36 and Its Model-Structure Analysis” (Frontiers in Microbiology, 2021)

Biological target: T1, PEXANL1 (Aspergillus niger, UniProt A0A5C2GD86)
T1 construct: mature peptide (278 residues of 297, signal peptide removed), extra N-terminal residues, C-terminal 6xHis kept; secreted from Pichia pastoris GS115 (pPIC9K, codon-optimised), Ni-NTA purified, Endo Hf deglycosylated
T1 sequence (A0A5C2GD86 20-297): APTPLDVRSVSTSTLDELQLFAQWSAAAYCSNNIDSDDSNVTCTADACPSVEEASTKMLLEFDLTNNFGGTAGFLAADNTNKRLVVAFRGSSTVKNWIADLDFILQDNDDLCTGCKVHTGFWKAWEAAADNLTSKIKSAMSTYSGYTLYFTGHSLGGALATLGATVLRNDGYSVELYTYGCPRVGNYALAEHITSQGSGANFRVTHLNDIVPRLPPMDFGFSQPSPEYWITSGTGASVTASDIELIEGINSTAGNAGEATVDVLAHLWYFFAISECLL
Test: ultrasound-assisted solvent-free esterification, HPLC of glycerides
Assay type: biochemical
Settings: 40 °C, ultrasound 200 W, 40 kHz

SMILES | ultrasound-assisted solvent-free esterification, HPLC of glycerides (co-substrate oleic acid (glycerol to oleic acid 5:1 molar)) | ultrasound-assisted solvent-free esterification, HPLC of glycerides (co-substrate glycerol (glycerol to oleic acid 5:1 molar))
OCC(O)CO [glycerol] | Ultrasound-assisted esterification of oleic acid (OA) with glycerol was studied | –
CCCCCCCC/C=C\CCCCCCCC(=O)O [oleic acid] | – | Ultrasound-assisted esterification of oleic acid (OA) with glycerol was studied
